# Data from PMC11181336, “Discovery of ITI-333, a Novel Orally Bioavailable Molecule Targeting Multiple Receptors for the Treatment of Pain and Other Disorders” (Journal of Medicinal Chemistry, 2024).
# Like-named read-outs stand apart in the source and are kept apart here.
# Assays:
# [1] = target: human recombinant dopamine D1 receptor (Homo sapiens, UniProt P21728); assay: Dopamine D1 receptor binding, [3H]SCH 23390 displacement; conditions: for inhibition at 0.1 µM: read-out: D1 % inhibition
# Chain of human recombinant dopamine D1 receptor (P21728 whole entry): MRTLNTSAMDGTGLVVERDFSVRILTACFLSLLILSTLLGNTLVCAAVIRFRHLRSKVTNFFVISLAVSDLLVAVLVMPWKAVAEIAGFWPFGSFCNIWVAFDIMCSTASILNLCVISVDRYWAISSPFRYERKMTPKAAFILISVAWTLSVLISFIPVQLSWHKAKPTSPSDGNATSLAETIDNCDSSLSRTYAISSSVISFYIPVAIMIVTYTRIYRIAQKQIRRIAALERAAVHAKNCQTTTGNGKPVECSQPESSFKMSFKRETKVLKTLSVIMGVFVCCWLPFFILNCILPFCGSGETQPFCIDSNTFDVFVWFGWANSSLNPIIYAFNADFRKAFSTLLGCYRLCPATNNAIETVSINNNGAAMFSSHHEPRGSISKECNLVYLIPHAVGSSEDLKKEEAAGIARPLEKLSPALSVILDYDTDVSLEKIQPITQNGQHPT
# [2] = target: T1, human recombinant 5-HT transporter (SERT) (Homo sapiens, UniProt P31645); assay: biochemical; type: binding; conditions: for inhibition at 0.1 µM / inhibition at 0.2 µM: read-out: SERT % inhibition
# T1 construct: host or cells: CHO-S / SERT (h), cell membrane homogenates
# T1 sequence (P31645 whole entry): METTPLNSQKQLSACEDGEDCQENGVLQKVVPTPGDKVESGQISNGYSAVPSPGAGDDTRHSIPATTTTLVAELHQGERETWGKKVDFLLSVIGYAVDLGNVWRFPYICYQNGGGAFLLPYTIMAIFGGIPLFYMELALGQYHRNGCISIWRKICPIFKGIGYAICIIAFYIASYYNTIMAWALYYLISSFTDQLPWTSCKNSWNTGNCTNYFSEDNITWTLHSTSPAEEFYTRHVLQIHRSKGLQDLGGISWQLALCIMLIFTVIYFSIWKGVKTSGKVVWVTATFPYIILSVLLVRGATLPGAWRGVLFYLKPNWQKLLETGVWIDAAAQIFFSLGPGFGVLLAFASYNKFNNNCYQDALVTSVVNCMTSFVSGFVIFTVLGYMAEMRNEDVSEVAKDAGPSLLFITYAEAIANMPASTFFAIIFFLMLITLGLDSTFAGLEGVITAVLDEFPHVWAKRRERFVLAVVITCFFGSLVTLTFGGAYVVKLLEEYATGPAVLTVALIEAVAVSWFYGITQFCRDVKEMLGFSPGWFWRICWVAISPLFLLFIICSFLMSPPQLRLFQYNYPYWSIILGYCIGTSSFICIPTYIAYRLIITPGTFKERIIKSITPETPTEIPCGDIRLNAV
# [3] = target: human recombinant dopamine D2 short receptor (Homo sapiens, UniProt P14416); assay: Dopamine D2 receptor binding, [3H]7-OH-DPAT displacement; conditions: for inhibition at 0.1 µM: read-out: D2 % inhibition
# Chain of human recombinant dopamine D2 short receptor (P14416 1-414 isoform P14416-2): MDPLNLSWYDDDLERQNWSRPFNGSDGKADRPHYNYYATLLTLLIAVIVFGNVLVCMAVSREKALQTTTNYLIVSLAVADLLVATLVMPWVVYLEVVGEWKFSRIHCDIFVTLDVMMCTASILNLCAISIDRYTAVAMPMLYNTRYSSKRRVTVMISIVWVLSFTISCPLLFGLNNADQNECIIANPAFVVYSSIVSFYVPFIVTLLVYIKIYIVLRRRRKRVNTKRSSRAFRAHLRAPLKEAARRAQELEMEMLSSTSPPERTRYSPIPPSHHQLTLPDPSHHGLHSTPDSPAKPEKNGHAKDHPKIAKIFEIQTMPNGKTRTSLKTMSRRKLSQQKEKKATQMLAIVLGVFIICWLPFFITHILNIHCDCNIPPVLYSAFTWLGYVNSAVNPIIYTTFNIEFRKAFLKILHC
# [4] = target: T2, human full-length recombinant serotonin 5-HT2A receptors (Homo sapiens, UniProt P28223); assay: biochemical; type: binding; conditions: for inhibition at 0.1 µM: read-out: 5-HT2A % inhibition
# T2 construct: human full-length recombinant serotonin 5-HT2A receptors expressed in HEK-293E cells
# T2 sequence (P28223 whole entry): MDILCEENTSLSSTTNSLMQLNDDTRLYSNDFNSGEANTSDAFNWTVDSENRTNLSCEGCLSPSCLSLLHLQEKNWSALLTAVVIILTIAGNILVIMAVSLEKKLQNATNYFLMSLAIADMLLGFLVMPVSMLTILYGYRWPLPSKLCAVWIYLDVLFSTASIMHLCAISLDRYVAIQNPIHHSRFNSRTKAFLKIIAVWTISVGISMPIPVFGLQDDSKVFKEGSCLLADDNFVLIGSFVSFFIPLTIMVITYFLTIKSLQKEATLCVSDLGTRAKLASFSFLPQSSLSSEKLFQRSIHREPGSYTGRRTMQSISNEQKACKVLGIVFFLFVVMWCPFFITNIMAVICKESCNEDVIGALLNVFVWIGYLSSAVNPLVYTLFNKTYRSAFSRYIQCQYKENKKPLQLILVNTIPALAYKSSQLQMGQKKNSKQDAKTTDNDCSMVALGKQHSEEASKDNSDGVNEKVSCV
# [5] = inhibition at 100 nM, NI = no inhibition
SMILES,inhibition at 0.1 µM [2] [%],"inhibition at 0.1 µM [1, 5] [%]","inhibition at 0.1 µM [3, 5] [%]",inhibition at 0.1 µM [4] [%],other results
"O=C1CN2c3c(cccc3[C@@H]3CN(CCCOc4ccc(F)cc4)CC[C@H]32)N1 (racemic) [compound 20, (±)-(trans)-8-(3-(4-Fluorophenoxy)propyl)-6b,7,8,9,10,10a-hexahydro-1H-pyrido[3′,4′:4,5]pyrrolo[1,2,3-de]quinoxalin-2(3H)-one]",< 0,,,,D1(Ki or (% Inhibition)): % inhibition [1]: 5.6 (79%); inhibition at 0.1 µM [1]: 79%
"CCCCN1CC[C@H]2[C@@H](C1)c1cccc3c1N2CC(=O)N3 [compound 21, (6bR,10aS)-8-Butyl-6b,7,8,9,10,10a-hexahydro-1H-pyrido[3′,4′:4,5]pyrrolo[1,2,3-de]quinoxalin-2(3H)-one]",,< 0,15,< 0,inhibition at 0.2 µM [2]: < 0%
"O=C1CN2c3c(cccc3[C@@H]3CN(CCCO)CC[C@@H]32)N1 [compound 22, (6bR,10aS)-8-(3-Hydroxypropyl)-6b,7,8,9,10,10a-hexahydro-1H-pyrido[3′,4′:4,5]pyrrolo[1,2,3-de]quinoxalin-2(3H)-one]",,< 0,< 0,8,inhibition at 0.2 µM [2]: < 0%
"O=C1CN2c3c(cccc3[C@@H]3CN(CCCOc4ccccc4)CC[C@@H]32)N1 [compound 23, (6bR,10aS)-8-(3-Phenoxypropyl)-6b,7,8,9,10,10a-hexahydro-1H-pyrido[3′,4′:4,5]-pyrrolo[1,2,3-de]quinoxalin-2(3H)-one]",,,,84,inhibition at 0.1 µM [1]: 24%; inhibition at 0.1 µM [3]: 34%; inhibition at 0.2 µM [2]: 8%; Ki [4]: 2.8 nM
"O=C1CN2c3c(cccc3[C@@H]3CN(CCCc4n[nH]c5cc(F)ccc45)CC[C@@H]32)N1 [compound 24, (6bR,10aS)-8-(3-(6-Fluoro-1H-indazol-3-yl)propyl)-6b,7,8,9,10,10a-hexahydro-1H-pyrido[3′,4′:4,5]pyrrolo-[1,2,3-de]quinoxalin-2(3H)-one]",,,,,Ki [1]: 5.2 nM; Ki [3]: 15 nM; Ki [2]: 540 nM; Ki [4]: 2.6 nM
"O=C1CN2c3c(cccc3[C@@H]3CN(CCCc4noc5cc(F)ccc45)CC[C@@H]32)N1 [compound 26, (6bR,10aS)-8-(3-(6-Fluorobenzo[d]isoxazol-3-yl)propyl)-6b,7,8,9,10,10a-hexahydro-1H-pyrido[3′,4′:4,5]-pyrrolo[1,2,3-de]quinoxalin-2(3H)-one]",,,,,Ki [1]: 13 nM; Ki [3]: 84 nM; fold weaker affinity to dopamine D2 receptors [3]: over 5 fold; Ki [4]: 3.1 nM
"O=C1CN2c3c(cccc3[C@@H]3CN(CCCOc4ccc5c(c4)OCO5)CC[C@@H]32)N1 [compound 28, (6bR,10aS)-8-(3-(Benzo[d][1,3]dioxol-5-yloxy)propyl)-6b,7,8,9,10,10a-hexahydro-1H-pyrido[3′,4′:4,5]-pyrrolo[1,2,3-de]quinoxalin-2(3H)-one]",,< 0,,< 0,
"O=C1CN2c3c(cccc3[C@@H]3CN(CCCOc4ccc(Br)cc4)CC[C@@H]32)N1 [compound 30, (6bR,10aS)-8-(3-(4-Bromophenoxy)propyl)-6b,7,8,9,10,10a-hexahydro-1H-pyrido[3′,4′:4,5]pyrrolo-[1,2,3-de]quinoxalin-2(3H)-one]",44,< 0,8.4,70,
"Cc1ccc(OCCCN2CC[C@H]3[C@@H](C2)c2cccc4c2N3CC(=O)N4)cc1 [compound 32, (6bR,10aS)-8-(3-(p-Tolyloxy)propyl)-6b,7,8,9,10,10a-hexahydro-1H-pyrido[3′,4′:4,5]pyrrolo[1,2,3-de]-quinoxalin-2(3H)-one]",9.6,13,20,62,
"O=C1CN2c3c(cccc3[C@@H]3CN(CCCOc4ccc(O)cc4)CC[C@@H]32)N1 [compound 33, (6bR,10aS)-8-(3-(4-Hydroxyphenoxy)propyl)-6b,7,8,9,10,10a-hexahydro-1H-pyrido[3′,4′:4,5]pyrrolo-[1,2,3-de]quinoxalin-2(3H)-one]",11,< 0,41,77,
"COc1ccc(OCCCN2CC[C@H]3[C@@H](C2)c2cccc4c2N3CC(=O)N4)cc1 [compound 34, (6bR,10aS)-8-(3-(4-Methoxyphenoxy)propyl)-6b,7,8,9,10,10a-hexahydro-1H-pyrido[3′,4′:4,5]pyrrolo-[1,2,3-de]quinoxalin-2(3H)-one]",10,< 0,,< 0,
